This note sets out measurements from US20050032854A1, “Insulin resistance improving agents” (priority 2001, published 2005).

For this assay, the system named is spontaneously hypertensive rats (SHR). The assay is described as follows: Insulin sensitivity evaluation by glucose clamp technique in spontaneously hypertensive rats (SHR). Particulars: for M-value (average glucose infusion rate, index of insulin sensitivity): n=10, vehicle 5.9±0.5. Format: in vivo, rat. As for the experimental part:
For evaluation of insulin resistance, 23-week-old spontaneously hypertensive rats (SHR) were used. Vehicle (0.5% methyl cellulose solution administration) and compound A (0.3 and 1 mg/kg/day) were orally administered for 2 weeks, after which an insulin sensitivity evaluation test by a glucose clamp technique was performed. The rats were grouped such that each parameter was leveled based on the glucose level and plasma insulin value before start of the drug administration. SHR were fasted from the evening of the day before the operation of the glucose clamp technique.
The glucose clamp technique was performed according to the following procedures. The rats were anesthetized with pentobarbital sodium (50 mg/kg i.p.) and catheters [PR45 (trademark), NATUME SEISAKUSHO CO., LTD.] for blood collection, for intravenous injection of insulin [novolin R injection 40 (trademark), Novo Nordisk Pharma Ltd.] and for intravenous injection of glucose [Otsuka glucose injection 50% (trademark), Otsuka Pharmaceutical Co., Ltd.] were each placed in the right common carotid artery, left femoral vein and right femoral vein, respectively. The glucose level was measured using a simplified glucose meter [Advantage II (trademark), Roche Diagnostics Corporation]. Using a peristaltic pump [MINIPULS 3 (trademark), Gilson Company, Inc.], insulin was constantly infused continuously at an injection rate of 40 and 20 mU/kg/min for 5 and 3 min, respectively, to afford a high insulin state, and thereafter high insulin state was maintained at 8 mU/kg/min.. Glucose was constantly infused intravenously to maintain the range of initial value±10% of blood glucose, using a different peristaltic pump. […] Glucose was constantly infused for-90 min and an average of glucose infusion rate for the period of 40 min from 50 min to 90 min after the start of the infusion was calculated and used as an index showing the insulin sensitivity (M-value). […] For statistic analysis, Williams' test was used and significance was evaluated at a risk rate of less than 2.5%.

With `CCOc1nc2cccc(C(=O)O)c2n1Cc1ccc(-c2ccccc2-c2nc(=O)o[nH]2)cc1` [compound A, 2-Ethoxy-1-[[2′-(5-oxo-2,5-dihydro-1,2,4-oxadiazol-3-yl)biphenyl-4-yl]methyl]-1H-benzimidazole-7-carboxylic acid], the “M-value (average glucose infusion rate, index of insulin sensitivity)” value (0.3 mg/kg/day orally for 2 weeks) is 7.8 ± 0.5 mg/kg/min and the “M-value (average glucose infusion rate, index of insulin sensitivity)” value (1 mg/kg/day orally for 2 weeks) stood at 8.6 ± 0.6 mg/kg/min. For the same molecule, the “insulin sensitivity enhancing effect” value (0.3 and 1 mg/kg/day orally for 2 weeks) is reported as “dose-dependent insulin sensitivity enhancing effect”.
